The first experiment concerns GDF8 signaling (p-SMAD-3 (Ser423/425)). Nature of the experiment: AlphaScreen SureFire SMAD3 (p-Ser423/425) assay, GDF8-stimulated cells (GDF pSMAD). It counts as cell-based. To be noted: MPC11; GDF8-stimulated; p-SMAD3 AlphaScreen; read-out: GDF pSMAD (MPC11) (inhibition of GDF8 signaling).
Take `Nc1ncnc2ccc(-c3cccnc3-c3ccc(F)c(Cl)c3)cc12` [compound 448, 6-(2-(3-Chloro-4-fluorophenyl)pyridin-3-yl)quinazolin-4-amine]: the IC50 was found to be 137 nM.

The same experiment, now with this note: Mus musculus, MPC-11, MPC11; GDF8-stimulated; p-SMAD3 AlphaScreen; read-out: GDF pSMAD (MPC11) (inhibition of GDF8 signaling).
Regarding `CC(C)Nc1ncnc2ccc(-c3cccnc3-c3ccc(F)c(Cl)c3)cc12` [compound 401, 6-(2-(3-Chloro-4-fluorophenyl)pyridin-3-yl)-N-isopropylquinazolin-4-amine], the IC50 was found to be 5890 nM.
The same measure, in the same setting: then `CCCCNc1ncnc2ccc(-c3cccnc3-c3ccc(F)c(C)c3)cc12` [compound 403, N-Butyl-6-(2-(4-fluoro-3-methylphenyl)pyridin-3-yl)quinazolin-4-amine], with 1670 nM; and `Cc1cc(-c2ncccc2-c2ccc3ncnc(NC4CC4)c3c2)ccc1F` [compound 404, N-Cyclopropyl-6-(2-(4-fluoro-3-methylphenyl)pyridin-3-yl)quinazolin-4-amine], with 1030 nM; and `Cc1cc(-c2ncccc2-c2ccc3ncnc(NC4CCCC4)c3c2)ccc1F` [compound 405, N-Cyclopentyl-6-(2-(4-fluoro-3-methylphenyl)pyridin-3-yl)quinazolin-4-amine], with 10700 nM.
The same measure, in the same setting: the figure for `Cc1cc(-c2ncccc2-c2ccc3ncnc(Nc4ccc(C(N)=O)cc4)c3c2)ccc1F` [compound 406, 4-((6-(2-(4-Fluoro-3-methylphenyl)pyridin-3-yl)quinazolin-4-yl)amino)benzamide] is 2790 nM; for `COc1ccc(Nc2ncnc3ccc(-c4cccnc4-c4ccc(F)c(C)c4)cc23)cc1` [compound 407, 6-(2-(4-Fluoro-3-methylphenyl)pyridin-3-yl)-N-(4-methoxyphenyl)quinazolin-4-amine] it is 2470 nM; for `Cc1cc(-c2ncccc2-c2ccc3ncnc(Nc4ccc(N5CCOCC5)cc4)c3c2)ccc1F` [compound 408, 6-(2-(4-Fluoro-3-methylphenyl)pyridin-3-yl)-N-(4-morpholinophenyl)quinazolin-4-amine] it is 673 nM.
Still for that read-out and setting: then `Cc1cc(-c2ncccc2-c2ccc3ncnc(Nc4ccc(C#N)cc4)c3c2)ccc1F` [compound 409, 4-((6-(2-(4-Fluoro-3-methylphenyl)pyridin-3-yl)quinazolin-4-yl)amino)benzonitrile], with 7950 nM.
Consider `Cc1cc(-c2ncccc2-c2ccc3ncnc(Nc4cccc(C(N)=O)c4)c3c2)ccc1F` [compound 410, 3-((6-(2-(4-Fluoro-3-methylphenyl)pyridin-3-yl)quinazolin-4-yl)amino)benzamide], for which the IC50 came to 4130 nM.
Same read-out and setting: then `Nc1ncnc2ccc(-c3cccnc3-c3cccc(C4CC4)c3)cc12` [compound 411, 6-(2-(3-Cyclopropylphenyl)pyridin-3-yl)quinazolin-4-amine], with 72.5 nM.
Regarding `Cc1cc(-c2ncccc2-c2ccc3ncnc(NCCc4cccnc4)c3c2)ccc1F` [compound 414, 6-(2-(4-Fluoro-3-methylphenyl)pyridin-3-yl)-N-(2-(pyridin-3-yl)ethyl)quinazolin-4-amine], the IC50 amounted to 3330 nM.
The same measure, in the same setting: the figure for `Cc1cc(-c2ncccc2-c2ccc3ncnc(NCc4ccncc4)c3c2)ccc1F` [compound 415, 6-(2-(4-Fluoro-3-methylphenyl)pyridin-3-yl)-N-(pyridin-4-ylmethyl)quinazolin-4-amine] is 11800 nM; for `Cc1cc(-c2ncccc2-c2ccc3ncnc(NCc4cccnc4)c3c2)ccc1F` [compound 416, 6-(2-(4-Fluoro-3-methylphenyl)pyridin-3-yl)-N-(pyridin-3-ylmethyl)quinazolin-4-amine] it is 4860 nM.
The same measure, in the same setting: then `Cc1cc(-c2ncccc2-c2ccc3ncnc(NCC4CCN(C)CC4)c3c2)ccc1F` [compound 421, 6-(2-(4-Fluoro-3-methylphenyl)pyridin-3-yl)-N-((1-methylpiperidin-4-yl)methyl)quinazolin-4-amine], with 1400 nM.
On the same count and under the same terms, the figure for `Cc1cc(-c2ncccc2-c2ccc3ncnc(NCCC4CCN(C)CC4)c3c2)ccc1F` [compound 422, 6-(2-(4-Fluoro-3-methylphenyl)pyridin-3-yl)-N-(2-(1-methylpiperidin-4-yl)ethyl)quinazolin-4-amine] is 1280 nM.
Take `Cc1cc(-c2ncccc2-c2ccc3ncnc(NCCCN(C)C)c3c2)ccc1F` [compound 423, N1-(6-(2-(4-Fluoro-3-methylphenyl)pyridin-3-yl)quinazolin-4-yl)-N3,N3-dimethylpropane-1,3-diamine]: the IC50 was determined as 628 nM.
The same measure, in the same setting: then `Cc1cc(-c2ncccc2-c2ccc3ncnc(NCCCN4CCOCC4)c3c2)ccc1F` [compound 424, 6-(2-(4-Fluoro-3-methylphenyl)pyridin-3-yl)-N-(3-morpholinopropyl)quinazolin-4-amine], with 2430 nM; and `Cc1cc(-c2ncccc2-c2ccc3ncnc(OCCCN(C)C)c3c2)ccc1F` [compound 429, 3-((6-(2-(4-Fluoro-3-methylphenyl)pyridin-3-yl)quinazolin-4-yl)oxy)-N,N-dimethylpropan-1-amine], with 384 nM; and `Cc1cc(-c2ncccc2-c2ccc3ncnc(OCC#N)c3c2)ccc1F` [compound 430, 2-((6-(2-(4-Fluoro-3-methylphenyl)pyridin-3-yl)quinazolin-4-yl)oxy)acetonitrile], with 475 nM.
Same read-out and setting: then `Cc1cc(-c2ncccc2-c2ccc3ncnc(OCCCN4CCCC4=O)c3c2)ccc1F` [compound 431, 1-(3-((6-(2-(4-Fluoro-3-methylphenyl)pyridin-3-yl)quinazolin-4-yl)oxy)propyl)pyrrolidin-2-one], with 374 nM.
With `Cc1ccc(Oc2ncnc3ccc(-c4cccnc4-c4ccc(F)c(C)c4)cc23)cn1` [compound 432, 6-(2-(4-Fluoro-3-methylphenyl)pyridin-3-yl)-4-((6-methylpyridin-3-yl)oxy)quinazoline], the IC50 is 513 nM.
Same read-out and setting: the figure for `Cc1cc(-c2ncccc2-c2ccc3ncnc(OCCN4CCN(C)CC4)c3c2)ccc1F` [compound 433, 6-(2-(4-Fluoro-3-methylphenyl)pyridin-3-yl)-4-(2-(4-methylpiperazin-1-yl)ethoxy)quinazoline] is 285 nM; for `Cc1cc(-c2ncccc2-c2ccc3ncnc(OCCCN4CCN(C)CC4)c3c2)ccc1F` [compound 434, 6-(2-(4-Fluoro-3-methylphenyl)pyridin-3-yl)-4-(3-(4-methylpiperazin-1-yl)propoxy)quinazoline] it is 1490 nM.
For the compound `CN(C)CCCOc1ncnc2ccc(-c3cccnc3-c3ccc(F)c(Cl)c3)cc12` [compound 435, 3-((6-(2-(3-Chloro-4-fluorophenyl)pyridin-3-yl)quinazolin-4-yl)oxy)-N,N-dimethylpropan-1-amine], the IC50 came to 608 nM.
As for `O=C1CCCN1CCCOc1ncnc2ccc(-c3cccnc3-c3ccc(F)c(Cl)c3)cc12` [compound 436, 1-(3-((6-(2-(3-Chloro-4-fluorophenyl)pyridin-3-yl)quinazolin-4-yl)oxy)propyl)pyrrolidin-2-one], the IC50 was 1180 nM.
With `Cc1ccc(Oc2ncnc3ccc(-c4cccnc4-c4ccc(F)c(Cl)c4)cc23)cn1` [compound 437, 6-(2-(3-Chloro-4-fluorophenyl)pyridin-3-yl)-4-((6-methylpyridin-3-yl)oxy)quinazoline], the IC50 was 739 nM.
Still for that read-out and setting: the figure for `CCN(CC)CCOc1ncnc2ccc(-c3cccnc3-c3ccc(F)c(Cl)c3)cc12` [compound 438, 2-((6-(2-(3-Chloro-4-fluorophenyl)pyridin-3-yl)quinazolin-4-yl)oxy)-N,N-diethylethan-1-amine] is 959 nM; for `CN(C)CCOc1ncnc2ccc(-c3cccnc3-c3ccc(F)c(Cl)c3)cc12` [compound 439, 2-((6-(2-(3-Chloro-4-fluorophenyl)pyridin-3-yl)quinazolin-4-yl)oxy)-N,N-dimethylethan-1-amine] it is 738 nM; for `Cc1cc(-c2ncccc2-c2ccc3ncnc(Oc4ccc(C#N)cc4)c3c2)ccc1F` [compound 440, 4-((6-(2-(4-Fluoro-3-methylphenyl)pyridin-3-yl)quinazolin-4-yl)oxy)benzonitrile] it is 1860 nM.
`Cc1cc(-c2ncccc2-c2ccc3ncnc(Oc4cccc(C#N)c4)c3c2)ccc1F` [compound 441, 3-((6-(2-(4-Fluoro-3-methylphenyl)pyridin-3-yl)quinazolin-4-yl)oxy)benzonitrile]: the IC50 came out at 1160 nM.
As to `Cc1cc(-c2ncccc2-c2ccc3ncnc(Oc4cccnc4)c3c2)ccc1F` [compound 442, 6-(2-(4-Fluoro-3-methylphenyl)pyridin-3-yl)-4-(pyridin-3-yloxy)quinazoline], the IC50 turned out to be 366 nM.
The same measure, in the same setting: the figure for `Cc1cc(-c2ncccc2-c2ccc3ncnc(OCCN4CCCC4)c3c2)ccc1F` [compound 443, 6-(2-(4-Fluoro-3-methylphenyl)pyridin-3-yl)-4-(2-(pyrrolidin-1-yl)ethoxy)quinazoline] is 429 nM; for `Cc1cc(-c2ncccc2-c2ccc3ncnc(Oc4cccc(N5CCOCC5)c4)c3c2)ccc1F` [compound 444, 4-(3-((6-(2-(4-Fluoro-3-methylphenyl)pyridin-3-yl)quinazolin-4-yl)oxy)phenyl)morpholine] it is 1080 nM; for `Cc1cc(-c2ncccc2-c2ccc3ncnc(OCCc4scnc4C)c3c2)ccc1F` [compound 445, 5-(2-((6-(2-(4-Fluoro-3-methylphenyl)pyridin-3-yl)quinazolin-4-yl)oxy)ethyl)-4-methylthiazole] it is 515 nM.
The same measure, in the same setting: the figure for `Cc1cc(-c2ncccc2-c2ccc3ncnc(Oc4ccc5ncccc5c4)c3c2)ccc1F` [compound 446, 6-(2-(4-Fluoro-3-methylphenyl)pyridin-3-yl)-4-(quinolin-6-yloxy)quinazoline] is 398 nM; for `Cc1cc(-c2ncccc2-c2ccc3ncnc(OC4CCN(c5ccncc5)CC4)c3c2)ccc1F` [compound 447, 6-(2-(4-Fluoro-3-methylphenyl)pyridin-3-yl)-4-((1-(pyridin-4-yl)piperidin-4-yl)oxy)quinazoline] it is 753 nM.
As to `Nc1ncnc2ccc(-c3cccnc3-c3cc(Cl)ccc3F)cc12` [compound 449, 6-(2-(5-Chloro-2-fluorophenyl)pyridin-3-yl)quinazolin-4-amine], the IC50 worked out at 68.6 nM.

The record behind these values is patent US10858335B2 (Rigel Pharmaceuticals, Inc., priority 2014, dated 2020).
